# Experiments:
# GBAv = molecular target: T1, GBAv (Amydetes, UniProt A0A3F2YLV6, R337L); experiment: HDX-MS, apo vs ligand-bound; type: binding; details: 5 mM ATP together with 5 mM luciferin (not separable), 50 mM MgCl2, pD 7.5, 25°C
# T1 construct: N-terminal His6-tag kept (no cleavage told), pET28b, E. coli BL21-CodonPlus-RIL; ~550 residues; monomer by SEC
# REPh = molecular target: T2, REPh (Phrixothrix hirtus, UniProt Q9U4U7, L334R); experiment: HDX-MS, apo vs ligand-bound; type: binding; details: 5 mM ATP together with 5 mM luciferin (not separable), 50 mM MgCl2, pD 7.5, 25°C
# T2 construct: N-terminal His6-tag kept (no cleavage told), pET28b, E. coli BL21-CodonPlus-RIL; ~550 residues; higher oligomer by SEC (octamer in crystal)
# T2 sequence (Q9U4U7 1-546 L334R): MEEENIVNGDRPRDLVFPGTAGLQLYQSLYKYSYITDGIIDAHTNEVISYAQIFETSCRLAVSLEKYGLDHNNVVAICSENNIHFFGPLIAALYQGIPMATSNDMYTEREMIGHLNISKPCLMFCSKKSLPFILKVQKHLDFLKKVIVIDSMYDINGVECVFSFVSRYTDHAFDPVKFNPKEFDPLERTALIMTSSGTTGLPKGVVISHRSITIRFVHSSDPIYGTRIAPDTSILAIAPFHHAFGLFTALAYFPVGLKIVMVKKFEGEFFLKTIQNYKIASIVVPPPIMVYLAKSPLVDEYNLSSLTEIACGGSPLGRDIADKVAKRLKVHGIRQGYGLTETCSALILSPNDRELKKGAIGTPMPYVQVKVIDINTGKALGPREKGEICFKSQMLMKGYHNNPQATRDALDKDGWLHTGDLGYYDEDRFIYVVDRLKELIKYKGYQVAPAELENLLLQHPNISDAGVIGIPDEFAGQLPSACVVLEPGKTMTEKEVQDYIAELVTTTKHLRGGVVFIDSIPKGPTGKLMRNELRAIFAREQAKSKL
# T1 sequence (A0A3F2YLV6 entry or part of it R337L): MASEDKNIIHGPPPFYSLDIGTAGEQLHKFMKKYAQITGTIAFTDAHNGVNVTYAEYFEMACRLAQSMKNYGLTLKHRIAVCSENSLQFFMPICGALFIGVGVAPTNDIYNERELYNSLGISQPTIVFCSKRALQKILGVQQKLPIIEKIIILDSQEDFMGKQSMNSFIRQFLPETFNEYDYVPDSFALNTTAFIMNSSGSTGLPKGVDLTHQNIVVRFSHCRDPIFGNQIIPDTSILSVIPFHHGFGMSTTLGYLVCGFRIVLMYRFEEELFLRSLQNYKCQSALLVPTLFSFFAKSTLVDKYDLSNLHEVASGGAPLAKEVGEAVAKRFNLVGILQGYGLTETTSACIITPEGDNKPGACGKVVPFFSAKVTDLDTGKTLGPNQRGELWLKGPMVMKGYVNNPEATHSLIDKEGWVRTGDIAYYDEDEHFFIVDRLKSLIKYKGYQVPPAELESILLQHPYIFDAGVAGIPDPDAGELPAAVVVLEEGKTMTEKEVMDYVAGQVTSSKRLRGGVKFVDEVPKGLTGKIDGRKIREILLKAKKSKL
structure (smiles),measurement,setting,value
Nc1ncnc2c1ncn2[C@@H]1O[C@H](COP(=O)(O)OP(=O)(O)OP(=O)(O)O)[C@@H](O)[C@H]1O [ATP],"HDX-MS, apo vs ligand-bound",GBAv,"Upon substrate binding, deuterium uptake by peptides-2 and -3 decreased in all variants"
same,"HDX-MS, apo vs ligand-bound",REPh,"Upon substrate binding, deuterium uptake by peptides-2 and -3 decreased in all variants"

# From article PMC12550276 (Life Science Alliance, 2025)
